Measurements taken from patent US20260101895A1, “[…] AND COMPOSITION” (Innospec Limited, priority 2022, published 2026).

Key:
[1] = initial solubility; 2 g complex in 100 ml deionised water, room temperature, 20 minutes, filtered 0.45 μm
Description: By the term “copper bioavailability” we mean the amount of copper that is released upon contact with water, i.e. so as to provide free copper ions for consumption by fungi. Copper bioavailability values may be measured using any suitable method, including the method as set out in the Examples. The copper bioavailability may be determined by measuring the content of copper in a sample (for example using a colorimetric test that compares to copper nitrate solutions of known concentrations) and converting the copper content to an amount of bioavailable copper (in ppm) using the formula: […]
The copper content is converted to bioavailable copper using the formula:
A solution of each copper amino carboxylic acid complex was prepared by dissolving 2 g of the copper complex in 100 ml deionised water and stirring at room temperature for 20 minutes. A sample of this solution was then withdrawn and filtered through a 0.45 μm syringe.
The filtered copper liquid was diluted with 1% nitric acid to yield a solution containing an approximate maximum of 1 mg/L Cu2+. The total copper content was then determined using a Perkin Elmer NexION 350D and converted to bioavailable copper using the formula above.

[2] = Repeated solubility: copper bioavailability over repeated wettings (colorimetric); settings: for Bioavailable copper Step 1 / Bioavailable copper Step 2 / Bioavailable copper Step 3 / Bioavailable copper Step 4 / Bioavailable copper Step 5: repeated solubility; for Bioavailable copper Step 1: 1 g complex in 50 ml deionised water, centrifuged, filtered, colorimetric 635 nm; for Bioavailable copper Step 2 / Bioavailable copper Step 3 / Bioavailable copper Step 4 / Bioavailable copper Step 5: undissolved material in 50 ml fresh deionised water
Experimental: The colorimetric absorbance at 635 nm using a Hach Lange DR3900 Spectrophotometer of copper nitrate solutions of known concentrations gives a linear relationship where:
Absorbance is relative to a standard solution of 9.9 ml deionised water, 0.1 ml 68 to 70% nitric acid
The copper content is converted to bioavailable copper using the formula: […]
To determine the copper content of each of the copper amino carboxylic acid complexes, 9.9 ml of filtered copper containing solution and 0.1 mL of 68 to 70% nitric acid was added to a spectrometer vial to completely react all of the copper complex to copper nitrate.
The absorbance at 635 nm (pre-zeroed with solution of 9.9 mL deionised water and 0.1 mL nitric acid) was recorded.
1 g of each copper amino carboxylic acid complex was added to 50 ml deionised water in a 50 ml centrifuge tube and stirred. The resulting mixture was centrifuged at 4000 rpm for 30 minutes, a sample of this was withdrawn and filtered through a 0.45 μm syringe. The copper content was determined using the above colorimetric method.
The remaining liquid in the centrifuge tube was poured away leaving only some undissolved material. 50 ml of fresh deionised water was added to the centrifuge tube containing undissolved material. The stirring and centrifugation process was repeated until no undissolved material remained.
These measurements indicate the bioavailability of the copper over repeated wettings in use.

Compound: Copper phenylalaninate
- Bioavailable Cu by ICP-MS [1]: 5250 ppm

Compound: Copper 12-aminododecanoate
- Bioavailable Cu by ICP-MS [1]: 9200 ppm

Compound: Copper sarcosinate
- Bioavailable Cu by ICP-MS [1]: 278000 ppm

Compound: Copper lysinate
- Bioavailable copper Step 1 [2]: 79000 ppm
- Bioavailable copper Step 2 [2]: 24000 ppm
- Bioavailable copper Step 3 [2]: 8375 ppm
- Bioavailable copper Step 4 [2]: 4000 ppm
- Bioavailable copper Step 5 [2]: 0 ppm
- Bioavailable Cu by ICP-MS [1]: 106950 ppm

Compound: Copper isoleucinate
- Bioavailable Cu by ICP-MS [1]: 13050 ppm

Compound: O=C([O-])CNCC(=O)[O-].[Cu+2] [Copper iminodiacetate]
- Bioavailable copper Step 1 [2]: 27750 ppm
- Bioavailable copper Step 2 [2]: 27750 ppm
- Bioavailable copper Step 3 [2]: 27750 ppm
- Bioavailable copper Step 4 [2]: 27750 ppm
- Bioavailable copper Step 5 [2]: 27125 ppm
- Bioavailability over repeated wettings/steps (in words) ([2]; summary of Table 2): good bioavailability for 3 or more wettings/steps
- Bioavailable Cu by ICP-MS [1]: 33000 ppm

Compound: Copper L-asparaginate
- Bioavailable Cu by ICP-MS [1]: 7125 ppm

Compound: Copper 2-aminooctanoate
- Bioavailable Cu by ICP-MS [1]: 150 ppm
